The record followed here is publication PMC3724809, “Analysis of the Interaction Interfaces of the N-Terminal Domain from Pseudomonas aeruginosa MutL” (PLoS ONE, 2013).

Data set [1] addresses T1, PaNTD (P. aeruginosa MutL N-terminal domain) (Pseudomonas aeruginosa, UniProt Q9HUL8).
T1 sequence (Q9HUL8 1-339): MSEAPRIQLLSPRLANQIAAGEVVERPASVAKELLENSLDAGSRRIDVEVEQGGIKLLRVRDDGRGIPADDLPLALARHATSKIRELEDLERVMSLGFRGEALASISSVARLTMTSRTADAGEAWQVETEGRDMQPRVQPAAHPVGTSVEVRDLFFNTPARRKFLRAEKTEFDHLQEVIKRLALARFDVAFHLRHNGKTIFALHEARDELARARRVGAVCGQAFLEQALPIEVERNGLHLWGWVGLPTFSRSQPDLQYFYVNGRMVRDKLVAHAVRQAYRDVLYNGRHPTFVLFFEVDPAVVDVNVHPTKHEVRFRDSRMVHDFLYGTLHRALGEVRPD
The experiment in a line: size-exclusion chromatography, nucleotide-induced dimerization. Format: binding. The note with it: 5 mM MgCl2, 150 mM KCl, 20 mM Tris-HCl pH 7.9, room temperature. (Size exclusion chromatography separates by hydrodynamic size, large species first.)

For data set [2], the target named is T2, EcNTD (E. coli MutL N-terminal domain, LN40) (Escherichia coli, UniProt P23367).
T2 sequence (P23367 1-342): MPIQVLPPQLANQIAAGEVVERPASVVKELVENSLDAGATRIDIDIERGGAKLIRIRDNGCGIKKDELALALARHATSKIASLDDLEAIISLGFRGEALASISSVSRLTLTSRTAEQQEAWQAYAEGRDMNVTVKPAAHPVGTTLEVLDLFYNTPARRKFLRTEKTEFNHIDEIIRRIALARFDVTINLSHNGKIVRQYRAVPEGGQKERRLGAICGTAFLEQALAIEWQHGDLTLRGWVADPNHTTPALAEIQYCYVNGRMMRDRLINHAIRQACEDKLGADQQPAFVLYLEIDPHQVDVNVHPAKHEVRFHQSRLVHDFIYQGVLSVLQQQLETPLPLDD
The experiment in a line: DSS chemical cross-linking, nucleotide-induced dimerization, SDS-PAGE. Format: binding. The note with it: 1 mM AMPPNP, 5 mM MgCl2, 150 mM KCl, 20 mM HEPES pH 7.4, 4 °C.

Data set [3] concerns the molecule itself. The data set can be described thus: SEC; Superose 12 10/30, 20 mM Tris-HCl pH 7.9, 150 mM KCl, 5 mM MgCl2, 1 mM DTT, room temperature; 1 mg/ml PaNTD or 2 mg/ml EcNTD (legend: 22 µM) without nucleotide, with ADP or with ATP; calibrated with BSA 45 and 66 kDa.

On to `Nc1ncnc2c1ncn2[C@@H]1O[C@H](COP(=O)(O)OP(=O)(O)O)[C@@H](O)[C@H]1O` [ADP], for which the “size-exclusion chromatography, nucleotide-induced dimerization” value in data set [1] was “PaNTD binding to ADP displaced monomer-dimer equilibrium as judged by size-exclusion chromatography”.

`Nc1ncnc2c1ncn2[C@@H]1O[C@H](COP(=O)(O)OP(=O)(O)OP(=O)(O)O)[C@@H](O)[C@H]1O` [ATP]: the “size-exclusion chromatography, nucleotide-induced dimerization” value in data set [1] is reported as “No major differences were observed among the elution pattern of ADP or ATP bound PaNTD”.

Turning to `Nc1ncnc2c1ncn2[C@@H]1O[C@H](COP(=O)(O)OP(=O)(O)NP(=O)(O)O)[C@@H](O)[C@H]1O` [AMPPNP], the “DSS chemical cross-linking, nucleotide-induced dimerization, SDS-PAGE” value in data set [2] is “EcNTD dimers were only observed in presence of AMPPNP (Figure S5)”.

B1: Pseudomonas aeruginosa MutL N-terminal domain (PaNTD, amino acids 1-339), His6-tagged (domain or fragment, UniProt Q9HUL8 1-339, looked up)
chain: MSEAPRIQLLSPRLANQIAAGEVVERPASVAKELLENSLDAGSRRIDVEVEQGGIKLLRVRDDGRGIPADDLPLALARHATSKIRELEDLERVMSLGFRGEALASISSVARLTMTSRTADAGEAWQVETEGRDMQPRVQPAAHPVGTSVEVRDLFFNTPARRKFLRAEKTEFDHLQEVIKRLALARFDVAFHLRHNGKTIFALHEARDELARARRVGAVCGQAFLEQALPIEVERNGLHLWGWVGLPTFSRSQPDLQYFYVNGRMVRDKLVAHAVRQAYRDVLYNGRHPTFVLFFEVDPAVVDVNVHPTKHEVRFRDSRMVHDFLYGTLHRALGEVRPD
notes: MutL of Pseudomonas aeruginosa, N-terminal ATPase domain, residues 1-339 of PaMutL, amplified from genomic DNA; monomeric MW 37.7 kDa; The pET-15b vector should add an N-terminal His6 tag with a thrombin site (surmised, as is cloning through NdeI); no cleavage of the tag is described; also called His6-PaNTD; His-tag PaNTD
With B1, in data set [3], the “dimer share of peak area” value was ~0.2 share of the dimer peak (monomer 0.8) and the stoichiometry N – broadly, the number of molecules, sites or subunits per partner or assembly – worked out at 2.
